Legend:
[1] = test system: CA1 cells; assay: Plateau potentials evoked by glutamate photolysis on CA1 cell dendrites in hippocampal slice cultures; format: cell-based; conditions: compared with control CA1 cells
Excerpt: It may be expected based on previous studies in the laboratory of the present inventor that partial denervation and removal of the majority of the excitatory input to area CA1 would result in a quiescent population of cells. In fact, local stimulation within area CA1 triggers prolonged, abnormally oscillatory synaptic responses in lesioned cultures that are never seen in normally innervated tissue (FIG. 1, top row), but only with a delay of 7 or more days after the injury (Wei et al., 2003). The reason is […] that denervation increases glutamate receptor expression in CA1 cells, akin to the well known phenomenon of denervation suprasensitivity in muscle. To confirm, the laboratory of the present inventor used photolysis of caged glutamate to compare the responses of CA1 cell dendrites in lesioned and unlesioned cultures.
In control cultures, distal, terminal dendritic branches of CA1 cells respond to weak photolysis of glutamate with passive subthreshold depolarizations. Stronger glutamate applications, however, trigger all-or-none Ca^2+-sensitive responses that are called plateau potentials (Wei et al., 2001). […] Plateau potentials, in contrast, are accompanied by Ca^2+ signals that can be seen throughout the stimulated dendrite within milliseconds, indicative of their rapid electrical propagation along the entire stimulated branch.

[2] = test system: animals with lesioned spinothalamic tracts; assay: von Frey filament test for allodynia after spinothalamic tract transection; format: in vivo, rat; conditions: 500 mg/kg intraperitoneally; FIG. 4B
Description: (§1) Spinothalamic tract transection. The spinothalamic tract is transected bilaterally at the level of the thoracic/lumbar border, thereby severing the ascending pathways conveying somatosensory, thermal and nociceptive information to the cortex via the thalamus. Male, adult Sprague-Dawley rats (ca. 200 gm) are anesthetized with pentobarbital and a T8 laminectomy is performed. The dura is opened with the tip of a 21 g. syringe needle to expose the spinal cord. The spinal cord is then lifted and rotated using a fine, sterile glass rod, and the ventral lateral pain pathways are severed electrolytically using a 1 MΩ sharpened tungsten needle and a 45 V pulse for 1 min. The lesion is packed with a small piece of sterile gelfoam. The overlying muscles and skin are closed and sutured, and the animal is allowed to recover on a 37° C. heating pad. Sham-operated controls undergo a laminectomy without dural penetration or spinal injury. This spinal transection procedure is a useful model of central pain syndrome where increased pain sensitivity and allodynia were observed. At various times after the lesion, standard behavioral tests were completed to assay the threshold for a stimulus to be perceived as painful, and allodynia was performed on awake, behaving animals. […] The paw withdrawal latency is automatically recorded when the rat withdraws its paw from the stimulus. […]

[3] = test system: animals with lesioned spinothalamic tracts; assay: Paw withdrawal latency test for hyperalgesia after spinothalamic tract transection; format: in vivo, rat; conditions: 500 mg/kg intraperitoneally; FIG. 4A
Description: as §1

SMILES: O=C(O)CN(CC(=O)O)c1ccccc1OCCOc1ccccc1N(CC(=O)O)CC(=O)O [BAPTA]
- prolongation of plateau potentials in denervated CA1 cells [1]: occluded

SMILES: CC[N+](CC)(CC)CC [TEA]
- prolongation of plateau potentials in denervated CA1 cells [1]: occluded

SMILES: CCC1(C)CC(=O)NC1=O (stereo not shown) [ethosuximide, 2-methyl-2-ethyl succinimide]
- allodynia (von Frey's test) [2]: reduced transiently
- hyperalgesia (paw withdrawal latency) [3]: reduced transiently

— patent publication US20090143450A1, “METHOD FOR TREATING CENTRAL PAIN SYNDROM OR FOR INDUCING CENTRALLY GENERATED PAIN IN AN ANIMAL MODEL” (UNIVERSITY OF MARYLAND, BALTIMORE, priority 2005, published 2009)
